From US6358929B1, “Use of a peptide preventing the intolerance reactions of the skin, in particular in cosmetic compositions” (L'Oreal, priority 1998, dated 2002)

Columns and labels:
female Balb/C mice [1] = assay: Contact hypersensitivity to TNCB, peptide applied topically in a water-in-oil cream; format: in vivo, mouse; settings: peptide in water-in-oil cream applied to the area to be sensitized 2 hours before sensitization; 24 hours after triggering; positive controls 7×10^−2 mm
Experimental: The procedure is carried out as in a) above, but the peptide, incorporated in a cream of the water-in-oil type, is applied to the area to be sensitized 2 hours before the sensitization.
24 hours after the triggering reaction, the increase in the thickness of the ear is on average 3×10^−2 mm in the treated mice and 7×10^−2 mm in the positive controls.

female Balb/C mice [2] = assay: Contact hypersensitivity to TNCB after sensitization, peptide injected i.v. before sensitization; format: in vivo, mouse; settings: 1.5 μg peptide i.v. (tail vein) 2 hours before TNCB sensitization; triggering 7 days later; measured 24 hours after triggering; positive controls 9.8×10^−2 mm, negative controls 1×10^−2 mm
Experimental: The study is carried out on 7-to 10-week-old female Balb/C mice.
A dose of 1.5 μg of the peptide studied (in solution in PBS buffer containing 0.1% of mouse serum) is injected into a vein of the tail of the mice 2 hours before the sensitization reaction.
The sensitization reaction consists in applying, with a brush, 100 μl of a solution containing 0.15% of TNCB in an acetone-olive oil (4:1) mixture to the shaved skin of the abdomen of the mice.
The triggering reaction is carried out 7 days after the sensitization reaction. This triggering reaction consists in applying to the two sides of an ear 10 microlitres of a solution containing 0.8% of TNCB in a vehicle consisting of the acetone-olive oil mixture already mentioned above.
To the other ear, only this mixture of acetone and olive oil is applied, for comparison.
The intensity of a possible contact hypersensitivity reaction is evaluated by estimating the size of the oedema of the ear treated with TNCB, in comparison with the ear treated with the vehicle alone. For that, the thickness of the ears is measured and compared with the aid of a micrometer screw. This measurement is carried out 24 hours after the triggering reaction.
The TNCB is also applied to the ear of control mice which have not been previously sensitized (negative controls).

[3] = test system: volunteer patients in whom a contact allergy to nickel was suspected; assay: Topical effect on contact hypersensitivity reaction to nickel sulphate patch; format: in vivo, humans; settings: cream containing 100 μM peptide under occlusive dressing on the back, 2 hours before 5% nickel sulphate patch; examined 24 hours later
Experimental: This study was carried out on 18 to 65 year-old volunteer patients in whom a contact allergy to nickel was suspected.
On day 0, there are applied with an occlusive dressing, to areas of the skin of the back, on the one hand a cream containing 100 μM of the peptide of formula II, and on the other hand the cream alone, without peptide, used as placebo.
Two hours later, patches impregnated with petroleum jelly containing nickel sulphate at a concentration of 5% are applied to the same areas of the skin, and also to an adjacent area that has not been pretreated.
24 hours later, the patients are examined. Those who developed a contact hypersensitivity reaction over the area treated with the placebo (and also over the adjacent area which received only the application of nickel salt), and who are therefore people who were already sensitized to nickel, are 14 in number.

female Balb/C mice [4] = assay: Contact hypersensitivity to TNCB after a second sensitization (tolerance test); format: in vivo, mouse; settings: same mice re-sensitized with TNCB 14 days after the first experiment, no new peptide; triggering 7 days later; measured 24 hours later; positive controls 14×10^−2 mm
Experimental: 14 days after the end of the experiment described in a) above, the same mice are subjected to a new sensitization reaction on the shaved skin of the back, as described in a).
7 days later, the triggering test is carried out by application of TNCB to the ear, and 24 hours later, the degree of swelling of the ear is measured.
The aim of this second experiment is to distinguish between a possible a specific temporary immunosuppression and a specific immunological tolerance.

## Ac-D-Lys-D-Pro-D-Val-NH2 [II]
Female Balb/C mice [1]
  increase in the thickness of the ear: 3×10^−2 mm
Female Balb/C mice [2]
  increase in the thickness of the ear: about 2.5×10^−2 mm
[3]
  people (out of 14 already sensitized to nickel) who did not develop any contact hypersensitivity reaction over the area treated with the peptide: 7
Female Balb/C mice [4]
  degree of swelling of the ear (increase in the thickness of the ear): ~3.5×10^−2 mm
